Laboratory results taken from ChEMBL document CHEMBL1156124, “Assessment of the putative binding conformation of a pyrazolopyridine class of inhibitors of MAPKAPK2 using computational studies” (Eur J Med Chem, 2010).

Each molecule was assayed against MAP kinase-activated protein kinase 2 (Homo sapiens) (UniProt P49137) (assay: Inhibition of MK2).
Sequence of MAP kinase-activated protein kinase 2 (Homo sapiens) (P49137 whole entry, looked up): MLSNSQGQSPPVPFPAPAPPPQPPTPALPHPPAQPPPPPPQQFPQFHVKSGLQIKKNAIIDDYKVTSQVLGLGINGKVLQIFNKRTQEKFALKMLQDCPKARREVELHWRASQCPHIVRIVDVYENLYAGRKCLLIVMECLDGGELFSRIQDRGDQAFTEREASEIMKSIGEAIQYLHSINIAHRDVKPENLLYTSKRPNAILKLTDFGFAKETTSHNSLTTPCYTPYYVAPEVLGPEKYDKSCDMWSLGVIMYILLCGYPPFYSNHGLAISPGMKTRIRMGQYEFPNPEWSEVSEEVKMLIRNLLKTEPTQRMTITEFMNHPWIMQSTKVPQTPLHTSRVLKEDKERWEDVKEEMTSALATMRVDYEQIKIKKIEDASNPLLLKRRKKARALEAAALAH

SMILES	Activity
N#Cc1c(N[C@H]2CC[C@H](N)CC2)cc(Nc2ccccc2Cl)n2nccc12	0.2 µM
CCOc1ccc(Nc2c(C)c(N[C@H]3CC[C@H](NCCc4ccccc4)CC3)c(C#N)c3ccnn23)cc1	0.2 µM
CCOc1ccc(Nc2c(C)c(NC3CCCCC3N)c(C#N)c3ccnn23)cc1 (centres undefined)	10 µM
CCOc1ccc(Nc2c(C)c(N[C@H]3CC[C@H](N)CC3)c(C#N)c3ccnn23)cc1	< 0.2 µM
CCOc1ccc(Nc2c(C)c(N[C@H]3CC[C@H](NCc4ccccc4)CC3)c(C#N)c3ccnn23)cc1	0.2 µM
CCOc1ccc(Nc2c(C)c(NCCC3CCCN3)c(C#N)c3ccnn23)cc1 (centres undefined)	1 µM
CCOc1ccc(Nc2c(C)c(NCCC3CCCCN3)c(C#N)c3ccnn23)cc1 (centres undefined)	10 µM
Cc1c(N[C@H]2CC[C@H](N)CC2)c(C#N)c2ccnn2c1Nc1ccc(-c2ccccc2)cc1	< 0.2 µM
CCOc1ccc(Nc2c(C(C)C)c(N[C@H]3CC[C@H](N)CC3)c(C#N)c3ccnn23)cc1	< 0.2 µM
CCOc1ccc(Nc2c(C)c(NCCCCCN)c(C#N)c3ccnn23)cc1	0.2 µM
CCOc1ccc(Nc2c(C)c(NC3CCC(NCc4ccccc4)CC3)c(C#N)c3ccnn23)cc1 (centres undefined)	0.2 µM
CCOc1ccc(Nc2c(CC)c(N[C@H]3CC[C@H](N)CC3)c(C#N)c3ccnn23)cc1	< 0.2 µM
CCOc1ccc(Nc2c(C)c(NC3CNCc4ccccc43)c(C#N)c3ccnn23)cc1 (centres undefined)	1 µM
CCOc1ccc(Nc2c(C)c(NC3CCCC(N)C3)c(C#N)c3ccnn23)cc1 (centres undefined)	1 µM
CCOc1ccc(Nc2c(C)c(NC3CCC(N)CC3)c(C#N)c3ccnn23)cc1 (centres undefined)	< 0.2 µM
CCOc1ccc(Nc2c(C)c(OC3CCC(N)CC3)nc3ccnn23)cc1 (centres undefined)	0.2 µM
CCOc1ccc(Nc2c(C)c(NCCCCCCN)c(C#N)c3ccnn23)cc1	10 µM

SMILES	Activity
CCOc1ccc(Nc2c(C)c(NCCN)c(C#N)c3ccnn23)cc1	0.2 µM
CCOc1ccc(Nc2c(C)c(N[C@H]3CC[C@H](NCCCc4ccccc4)CC3)c(C#N)c3ccnn23)cc1	0.2 µM
COCCOc1ccc(Nc2c(C)c(N[C@H]3CC[C@H](N)CC3)c(C#N)c3ccnn23)cc1	< 0.2 µM
CCOc1ccc(Nc2c(C)c(N[C@H]3CC[C@H](NCC4CCCCC4)CC3)c(C#N)c3ccnn23)cc1	0.2 µM
CCOc1ccc(Nc2c(C)c(NCC3CCCCN3)c(C#N)c3ccnn23)cc1 (centres undefined)	1 µM
c1ccn2nccc2c1	< 0.2 µM
NC(=O)n1ncc2ccccc21	< 150 µM
CCOc1ccc(Nc2c(C)c(NCCCN)c(C#N)c3ccnn23)cc1	0.2 µM
CCOc1ccc(Nc2c(C)c(NCCCNC3CCCCC3)c(C#N)c3ccnn23)cc1	1 µM
CCOc1ccc(Nc2c(C)c(OC3CCCNC3)nc3ccnn23)cc1 (centres undefined)	1 µM
CCOc1ccc(Nc2c(C)c(N[C@@H]3CCCC[C@H]3N)c(C#N)c3ccnn23)cc1	10 µM
CCOc1ccc(Nc2c(C)c(OCCN)nc3ccnn23)cc1	10 µM
CCOc1ccc(Nc2c(C3CC3)c(N[C@H]3CC[C@H](N)CC3)c(C#N)c3ccnn23)cc1	< 0.2 µM
N#Cc1c(N[C@@H]2CCCNC2)cc(Nc2ccc(-c3ccccc3)cc2)n2nccc12	0.2 µM
CCOc1ccc(Nc2c(C)c(N[C@H]3CC[C@H](NCC(C)C)CC3)c(C#N)c3ccnn23)cc1	< 0.2 µM
CCOc1ccc(Nc2c(C)c(NCCC3CCCN3C)c(C#N)c3ccnn23)cc1 (centres undefined)	10 µM

More lines, now with the values ahead:

Activity	SMILES
0.2 µM	CCOc1ccc(Nc2c(C)c(NC3CCNCC3)c(C#N)c3ccnn23)cc1
0.2 µM	CCOc1ccc(Nc2c(C3CC3)c(N[C@@H]3CCCNC3)c(C#N)c3ccnn23)cc1
< 0.2 µM	Cc1c(N[C@@H]2CCCNC2)c(C#N)c2ccnn2c1Nc1nc2ccccc2s1
< 0.2 µM	C=CCc1c(N[C@@H]2CCCNC2)c(C#N)c2ccnn2c1Nc1ccc(OCC)cc1
1 µM	CCOc1ccc(Nc2c(C)c(NCC3CCCN3)c(C#N)c3ccnn23)cc1 (centres undefined)
0.2 µM	Cc1c(N[C@H]2CC[C@H](N)CC2)c(C#N)c2ccnn2c1NOc1ccccc1
< 0.2 µM	Cc1c(N[C@@H]2CCCNC2)c(C#N)c2ccnn2c1Nc1ccccc1
< 0.2 µM	CCOc1ccc(Nc2c(CC)c(N[C@@H]3CCCNC3)c(C#N)c3ccnn23)cc1
< 0.2 µM	CCOc1ccc(Nc2c(C)c(N[C@H]3CCCNC3)c(C#N)c3ccnn23)cc1
0.2 µM	CCOc1ccc(Nc2c(-c3ccccc3)c(NC3CCCNC3)c(C#N)c3ccnn23)cc1 (centres undefined)
1 µM	CCOc1ccc(Nc2c(C)c(NCC3CCNC3)c(C#N)c3ccnn23)cc1 (centres undefined)
1 µM	CCOc1ccc(Nc2c(C)c(NCC3CCCNC3)c(C#N)c3ccnn23)cc1 (centres undefined)
< 0.2 µM	Cc1c(N[C@@H]2CCCNC2)c(C#N)c2ccnn2c1NCc1nc2ccccc2s1
0.2 µM	N#Cc1c(N[C@@H]2CCCNC2)cc(Nc2ccccc2Cl)n2nccc12
< 0.2 µM	CCOc1ccc(Nc2c(CCO)c(N[C@@H]3CCCNC3)c(C#N)c3ccnn23)cc1
0.2 µM	N#Cc1c(N[C@H]2CC[C@H](N)CC2)cc(Nc2nc3ccccc3s2)n2nccc12
< 0.2 µM	CCOc1ccc(Nc2c(CC(C)C)c(N[C@@H]3CCCNC3)c(C#N)c3ccnn23)cc1
< 0.2 µM	CCCc1c(N[C@@H]2CCCNC2)c(C#N)c2ccnn2c1Nc1ccc(OCC)cc1
0.2 µM	CCOc1ccc(Nc2cc(N[C@@H]3CCCNC3)c(C#N)c3ccnn23)cc1
< 0.2 µM	COCCOc1ccc(Nc2c(C)c(N[C@@H]3CCCNC3)c(C#N)c3ccnn23)cc1
0.2 µM	COCCOc1ccc(Nc2c(C)c(N[C@H]3CCNC3)c(C#N)c3ccnn23)cc1
